Assay results: US20090016990A1, “Antimicrobial Compositions” (priority 2007, published 2009)

Legend:
[1] = test system: Pseudomonas aeruginosa ATCC 27853; test: MBEC assay, biofilm inhibition (prevention of biofilm formation), MBEC bioFILM PA panel; assay type: cell-based; design: MBEC-Biofilm Inhibition, Without compound 9 / MBEC-Biofilm Inhibition, Without compound 6 / MBEC-Biofilm Inhibition, Without compound 2 / MBEC-Biofilm Inhibition, Without compound 7 / MBEC-Biofilm Inhibition, With 0.01% compound 7 in 5% EtOH/PBS / MBEC-Biofilm Inhibition, without salt of compound 2 / MBEC-Biofilm Inhibition, with 0.1% salt of compound 2 / MBEC-Biofilm Inhibition, without salt of compound 6: unit not given here; details: for MBEC-Biofilm Inhibition, without salt of compound 2 / MBEC-Biofilm Inhibition, with 0.1% salt of compound 2: Table 9; for MBEC-Biofilm Inhibition, without salt of compound 2 / MBEC-Biofilm Inhibition, without salt of compound 6: antibiotic or antibiotic combination alone; for MBEC-Biofilm Inhibition, without salt of compound 2 / MBEC-Biofilm Inhibition, with 0.1% salt of compound 2 / MBEC-Biofilm Inhibition, without salt of compound 6 / MBEC-Biofilm Inhibition, with 0.1% salt of compound 6: value per component; for MBEC-Biofilm Inhibition, without salt of compound 2: separated by /; for MBEC-Biofilm Inhibition, with 0.1% salt of compound 2: antibiotic or combination plus 0.1% salt of compound 2; for MBEC-Biofilm Inhibition, without salt of compound 6 / MBEC-Biofilm Inhibition, with 0.1% salt of compound 6: Table 10; for MBEC-Biofilm Inhibition, with 0.1% salt of compound 6: antibiotic or combination plus 0.1% salt of compound 6; for MBEC-Biofilm Inhibition, Without compound 1 / MBEC-Biofilm Inhibition, Without compound 2 / MBEC-Biofilm Inhibition, Without compound 3 / MBEC-Biofilm Inhibition, Without compound 6 / MBEC-Biofilm Inhibition, Without compound 7 / MBEC-Biofilm Inhibition, Without compound 9: antibiotic alone
[2] = test system: Pseudomonas aeruginosa ATCC 27853; test: MBEC assay, biofilm elimination, MBEC bioFILM PA panel; assay type: cell-based; design: MBEC-Biofilm Elimination, Without compound 2 / MBEC-Biofilm Elimination, With 0.01% compound 2 in 5% EtOH/PBS / MBEC-Biofilm Elimination, Without compound 7 / MBEC-Biofilm Elimination, With 0.01% compound 7 in 5% EtOH/PBS / MBEC-Biofilm Elimination, Without compound 1 / MBEC-Biofilm Elimination, With 0.01% compound 1 in 5% EtOH/PBS / MBEC-Biofilm Elimination, without salt of compound 2 / MBEC-Biofilm Elimination, with 0.1% salt of compound 2: unit not given here; details: for MBEC-Biofilm Elimination, without salt of compound 2 / MBEC-Biofilm Elimination, with 0.1% salt of compound 2: Table 9; for MBEC-Biofilm Elimination, without salt of compound 2 / MBEC-Biofilm Elimination, without salt of compound 6: antibiotic or antibiotic combination alone; for MBEC-Biofilm Elimination, without salt of compound 2 / MBEC-Biofilm Elimination, with 0.1% salt of compound 2 / MBEC-Biofilm Elimination, without salt of compound 6 / MBEC-Biofilm Elimination, with 0.1% salt of compound 6: value per component; for MBEC-Biofilm Elimination, with 0.1% salt of compound 2: antibiotic or combination plus 0.1% salt of compound 2; for MBEC-Biofilm Elimination, without salt of compound 6 / MBEC-Biofilm Elimination, with 0.1% salt of compound 6: Table 10; for MBEC-Biofilm Elimination, with 0.1% salt of compound 6: antibiotic or combination plus 0.1% salt of compound 6; for MBEC-Biofilm Elimination, Without compound 1 / MBEC-Biofilm Elimination, Without compound 2 / MBEC-Biofilm Elimination, Without compound 3 / MBEC-Biofilm Elimination, Without compound 6 / MBEC-Biofilm Elimination, Without compound 7 / MBEC-Biofilm Elimination, Without compound 9: antibiotic alone
[3] = with 0.01% compound 2 in 5% EtOH/PBS

Compound | MBEC-Biofilm Inhibition, without salt of compound 2 [1] | MBEC-Biofilm Inhibition, with 0.1% salt of compound 2 [1] | MBEC-Biofilm Inhibition, without salt of compound 6 [1] | MBEC-Biofilm Inhibition, with 0.1% salt of compound 6 [1] | MBEC-Biofilm Inhibition, Without compound 1 [1] | MBEC-Biofilm Inhibition, Without compound 2 [1] | MBEC-Biofilm Inhibition, Without compound 3 [1] | MBEC-Biofilm Inhibition, Without compound 6 [1] | MBEC-Biofilm Inhibition, Without compound 7 [1] | MBEC-Biofilm Inhibition, Without compound 9 [1] | MBEC-Biofilm Inhibition, With 0.01% compound 1 in 5% EtOH/PBS [1] | MBEC-Biofilm Inhibition, With 0.01% compound 2 in 5% EtOH/PBS [1, 3] | MBEC-Biofilm Inhibition, With 0.01% compound 7 in 5% EtOH/PBS [1] | MBEC-Biofilm Inhibition, With 0.05% compound 3 in 5% EtOH/PBS [1] | MBEC-Biofilm Inhibition, With 0.05% compound 6 in 5% EtOH/PBS [1] | MBEC-Biofilm Inhibition, With 0.1% w/v compound 9 in PBS [1] | MBEC-Biofilm Elimination, without salt of compound 2 [2] | MBEC-Biofilm Elimination, with 0.1% salt of compound 2 [2] | MBEC-Biofilm Elimination, without salt of compound 6 [2] | MBEC-Biofilm Elimination, with 0.1% salt of compound 6 [2] | further results
NCC[C@H](O)C(=O)N[C@@H]1C[C@H](N)[C@@H](O[C@H]2O[C@H](CN)[C@@H](O)[C@H](O)[C@H]2O)[C@H](O)[C@H]1O[C@H]1O[C@H](CO)[C@@H](O)[C@H](N)[C@H]1O [AK, amikacin] | >8 | >8 | >8 | >8 | >8 | >8 | >8 | >8 | >8 | >8 | >8 | 2-8 | >8 | >8 | >8 | >8 | >8 | 8 | >8 | 8 | MBEC ([1]; antibiotic or combination alone, concentrations in order of the combination): >8 µg/mL; MBEC, μg/mL +Compound 1 ([1]; antibiotic plus Compound 1): >8 µg/mL; MBEC, μg/mL +Compound 2 ([1]; antibiotic plus Compound 2): >8 µg/mL; MBEC, μg/mL +Compound 7 ([1]; antibiotic plus Compound 7): 2 to 8 µg/mL; (% reduction) +Compound 7 ([1]; reduction of antibiotic or combination required to prevent biofilm formation): > 50%; value in parentheses after MBEC-Biofilm Inhibition with 0.01% compound 2 (% reduction as in Table 2) [1, 3]: ≥ 50; MBEC-Biofilm Elimination, Without compound 1 [2]: >8; MBEC-Biofilm Elimination, Without compound 2 [2]: >8; MBEC-Biofilm Elimination, Without compound 3 [2]: >8; MBEC-Biofilm Elimination, Without compound 6 [2]: >8; MBEC-Biofilm Elimination, Without compound 7 [2]: >8; MBEC-Biofilm Elimination, Without compound 9 [2]: >8; MBEC-Biofilm Elimination, With 0.01% compound 1 in 5% EtOH/PBS [2]: >8; MBEC-Biofilm Elimination, With 0.01% compound 2 in 5% EtOH/PBS [2]: 8; MBEC-Biofilm Elimination, With 0.01% compound 7 in 5% EtOH/PBS [2]: 8; MBEC-Biofilm Elimination, With 0.05% compound 3 in 5% EtOH/PBS [2]: >8; MBEC-Biofilm Elimination, With 0.05% compound 6 in 5% EtOH/PBS [2]: >8; MBEC-Biofilm Elimination, With 0.1% w/v compound 9 in PBS [2]: >8
C[C@H]1[C@H](NC(=O)/C(=N\OC(C)(C)C(=O)O)c2csc(N)n2)C(=O)N1S(=O)(=O)O [AZT, astreonam] | >4 | >4 | >4 | >4 | >4 | >4 | >4 | >4 | >4 | >4 | >4 | >4 | >4 | >4 | >4 | >4 | >4 | >4 | >4 | >4 | MBEC-Biofilm Elimination, Without compound 1 [2]: >4; MBEC-Biofilm Elimination, Without compound 2 [2]: >4; MBEC-Biofilm Elimination, Without compound 3 [2]: >4; MBEC-Biofilm Elimination, Without compound 6 [2]: >4; MBEC-Biofilm Elimination, Without compound 7 [2]: >4; MBEC-Biofilm Elimination, Without compound 9 [2]: >4; MBEC-Biofilm Elimination, With 0.01% compound 1 in 5% EtOH/PBS [2]: >4; MBEC-Biofilm Elimination, With 0.01% compound 2 in 5% EtOH/PBS [2]: >4; MBEC-Biofilm Elimination, With 0.01% compound 7 in 5% EtOH/PBS [2]: >4; MBEC-Biofilm Elimination, With 0.05% compound 3 in 5% EtOH/PBS [2]: >4; MBEC-Biofilm Elimination, With 0.05% compound 6 in 5% EtOH/PBS [2]: >4; MBEC-Biofilm Elimination, With 0.1% w/v compound 9 in PBS [2]: >4
O=C(N[C@H](CO)[C@H](O)c1ccc([N+](=O)[O-])cc1)C(Cl)Cl [C, chloramphenicol] | >4 | >4 | >4 | >4 | >4 | >4 | >4 | >4 | >4 | >4 | >4 | >4 | >4 | >4 | >4 | >4 | >4 | >4 | >4 | >4 | MBEC-Biofilm Elimination, Without compound 1 [2]: >4; MBEC-Biofilm Elimination, Without compound 2 [2]: >4; MBEC-Biofilm Elimination, Without compound 3 [2]: >4; MBEC-Biofilm Elimination, Without compound 6 [2]: >4; MBEC-Biofilm Elimination, Without compound 7 [2]: >4; MBEC-Biofilm Elimination, Without compound 9 [2]: >4; MBEC-Biofilm Elimination, With 0.01% compound 1 in 5% EtOH/PBS [2]: >4; MBEC-Biofilm Elimination, With 0.01% compound 2 in 5% EtOH/PBS [2]: >4; MBEC-Biofilm Elimination, With 0.01% compound 7 in 5% EtOH/PBS [2]: >4; MBEC-Biofilm Elimination, With 0.05% compound 3 in 5% EtOH/PBS [2]: >4; MBEC-Biofilm Elimination, With 0.05% compound 6 in 5% EtOH/PBS [2]: >4; MBEC-Biofilm Elimination, With 0.1% w/v compound 9 in PBS [2]: >4
CC(C)(O/N=C(\C(=O)N[C@@H]1C(=O)N2C(C(=O)[O-])=C(C[n+]3ccccc3)CS[C@H]12)c1csc(N)n1)C(=O)O [CAZ, ceftazidime] | >4 | >4 | >4 | >4 | >4 | >4 | >4 | >4 | >4 | >4 | >4 | >4 | >4 | >4 | >4 | >4 | >4 | >4 | >4 | >4 | MBEC-Biofilm Elimination, Without compound 1 [2]: >4; MBEC-Biofilm Elimination, Without compound 2 [2]: >4; MBEC-Biofilm Elimination, Without compound 3 [2]: >4; MBEC-Biofilm Elimination, Without compound 6 [2]: >4; MBEC-Biofilm Elimination, Without compound 7 [2]: >4; MBEC-Biofilm Elimination, Without compound 9 [2]: >4; MBEC-Biofilm Elimination, With 0.01% compound 1 in 5% EtOH/PBS [2]: >4; MBEC-Biofilm Elimination, With 0.01% compound 2 in 5% EtOH/PBS [2]: >4; MBEC-Biofilm Elimination, With 0.01% compound 7 in 5% EtOH/PBS [2]: >4; MBEC-Biofilm Elimination, With 0.05% compound 3 in 5% EtOH/PBS [2]: >4; MBEC-Biofilm Elimination, With 0.05% compound 6 in 5% EtOH/PBS [2]: >4; MBEC-Biofilm Elimination, With 0.1% w/v compound 9 in PBS [2]: >4
